This note sets out measurements from patent US20090118274A1, “MONOCYCLIC AMINOPROPYL TETRAHYDRO-PYRAZOLO-PYRIDINE MODULATORS OF CATHEPSIN S” (priority 2007, published 2009).

pIC50: −log10 of the molar value.

One assay deals with T1, Recombinant human cathepsin S (CatS) (Homo sapiens, UniProt P25774).
T1 construct: made in house
T1 sequence (P25774 115-331): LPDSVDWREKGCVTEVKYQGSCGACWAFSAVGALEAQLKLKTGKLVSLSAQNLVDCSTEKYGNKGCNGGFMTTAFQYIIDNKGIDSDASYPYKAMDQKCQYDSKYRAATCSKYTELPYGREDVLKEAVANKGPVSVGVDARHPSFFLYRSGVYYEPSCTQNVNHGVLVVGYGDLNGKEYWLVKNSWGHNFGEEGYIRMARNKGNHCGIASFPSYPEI
The experiment in a line: Recombinant human cathepsin S (CatS) fluorogenic substrate inhibition assay. It counts as biochemical.
Conditions: not given
Here is the method: Recombinant human cathepsin S (CatS) was expressed in the baculovirus system and purified in one step with a thiopropyl-sepharose column. […] The assay is run in 150 mM sodium acetate pH 5.0 containing 1.5 mM DTT and 150 mM NaCl. […] Measurements are taken every min for 20 min. The rate is calculated from the slope of the increase in fluorescence and the percent inhibition is calculated from this.
Usually pIC50 stands for the IC50 on a negative log10 scale, so that one unit is a factor of ten. `CN1CCN(CC(O)Cn2nc(-c3ccc(C(F)(F)F)c(CNC(=O)c4ccc(F)cc4)c3)c3c2CCN(S(C)(=O)=O)C3)CC1` (centres unmarked) [Example 227, 4-Fluoro-N-(5-{1-[2-hydroxy-3-(4-methyl-piperazin-1-yl)-propyl]-5-methanesulfonyl-4,5,6,7-tetrahydro-1H-pyrazolo[4,3-c]pyridin-3-yl}-2-trifluoromethyl-benzyl)-benzamide]: the pIC50 is 6.12. Same read-out and setting: as for `CS(=O)(=O)N1CCc2c(c(-c3ccc(Cl)c(CNC(=O)c4ccccc4)c3)nn2CCCN2CCCC2)C1` [Example 2, N-{2-Chloro-5-[5-methanesulfonyl-1-(3-pyrrolidin-1-yl-propyl)-4,5,6,7-tetrahydro-1H-pyrazolo[4,3-c]pyridin-3-yl]-benzyl}-benzamide], the figure is 6.49. Still for that read-out and setting: as for `CS(=O)(=O)N1CCc2c(c(-c3ccc(C(F)(F)F)c(CNC(=O)Oc4ccccc4)c3)nn2CC(O)CN2CCCC2)C1` (centres unmarked) [Example 116, {5-[1-(2-Hydroxy-3-pyrrolidin-1-yl-propyl)-5-methanesulfonyl-4,5,6,7-tetrahydro-1H-pyrazolo[4,3-c]pyridin-3-yl]-2-trifluoromethyl-benzyl}-carbamic acid phenyl ester], the figure is 6.28.

Still in this assay, the particulars now being: average of results obtained; substrate Z-Valine-Valine-Arginine-AMC 10 μM, pH 5.0; read-out: CatS IC50.
Turning to `CS(=O)(=O)N1CCc2c(c(-c3ccc(C(F)(F)F)c(CNC(=O)c4ccc(F)cc4)c3)nn2CC(O)CN2CCC(C(=O)O)CC2)C1` (centres unmarked) [Example 90, 1-[3-(3-{3-[(4-Fluoro-benzoylamino)-methyl]-4-trifluoromethyl-phenyl}-5-methanesulfonyl-4,5,6,7-tetrahydro-pyrazolo[4,3-c]pyridin-1-yl)-2-hydroxy-propyl]-piperidine-4-carboxylic acid], the pIC50 was 6.82. The same measure, in the same setting: as for `CC(=O)Nc1cccc(C(=O)NCc2cc(-c3nn(CC(O)CN4CCCC4)c4c3CN(S(C)(=O)=O)CC4)ccc2C(F)(F)F)c1` (centres unmarked) [Example 59, 3-Acetylamino-N-{5-[1-(2-hydroxy-3-pyrrolidin-1-yl-propyl)-5-methanesulfonyl-4,5,6,7-tetrahydro-1H-pyrazolo[4,3-c]pyridin-3-yl]-2-trifluoromethyl-benzyl}-benzamide], the figure is 6.30; as for `CC(=O)NC1CCN(CC(O)Cn2nc(-c3ccc(C(F)(F)F)c(CNC(=O)C=C(C)C)c3)c3c2CCN(S(C)(=O)=O)C3)CC1` (centres unmarked) [Example 29, 3-Methyl-but-2-enoic acid 5-{1-[3-(4-acetylamino-piperidin-1-yl)-2-hydroxy-propyl]-5-methanesulfonyl-4,5,6,7-tetrahydro-1H-pyrazolo[4,3-c]pyridin-3-yl}-2-trifluoromethyl-benzylamide], 8.00. Turning to `CC1CCN(CC(O)Cn2nc(-c3ccc(C(F)(F)F)c(CNC(=O)c4ccc(F)cc4)c3)c3c2CCN(S(C)(=O)=O)C3)CC1` (centres unmarked) [Example 22, 4-Fluoro-N-(5-{1-[2-hydroxy-3-(4-methyl-piperidin-1-yl)-propyl]-5-methanesulfonyl-4,5,6,7-tetrahydro-1H-pyrazolo[4,3-c]pyridin-3-yl}-2-trifluoromethyl-benzyl)-benzamide], the pIC50 was 7.00.

Regarding `CC1CCCN1CC(O)Cn1nc(-c2ccc(C(F)(F)F)c(CNC(=O)c3ccc(F)cc3)c2)c2c1CCN(S(C)(=O)=O)C2` (centres unmarked) [Example 100, 4-Fluoro-N-(5-{1-[2-hydroxy-3-(2-methyl-pyrrolidin-1-yl)-propyl]-5-methanesulfonyl-4,5,6,7-tetrahydro-1H-pyrazolo[4,3-c]pyridin-3-yl}-2-trifluoromethyl-benzyl)-benzamide], the pIC50 is 6.48. Same read-out and setting: as for `CC(=O)NC1CCN(CC(Cn2nc(-c3ccc(Cl)c(CNC(=O)c4ccc(F)cc4)c3)c3c2CCN(S(C)(=O)=O)C3)OC(C)=O)CC1` (centres unmarked) [Example 80, Acetic acid 1-(4-acetylamino-piperidin-1-ylmethyl)-2-(3-{4-chloro-3-[(4-fluoro-benzoylamino)-methyl]-phenyl}-5-methanesulfonyl-4,5,6,7-tetrahydro-pyrazolo[4,3-c]pyridin-1-yl)-ethyl ester], the figure is 7.00. Regarding `NC(=O)N1CCc2c(c(-c3ccc(C(F)(F)F)c(CNC(=O)c4ccc(F)cc4)c3)nn2CC(O)CN2CCC3(CCNC3=O)CC2)C1` (centres unmarked) [Example 9, 3-{3-[(4-Fluoro-benzoylamino)-methyl]-4-trifluoromethyl-phenyl}-1-[2-hydroxy-3-(1-oxo-2,8-diaza-spiro[4.5]dec-8-yl)-propyl]-1,4,6,7-tetrahydro-pyrazolo[4,3-c]pyridine-5-carboxylic acid amide], the pIC50 was 7.40. `CN(C)C1CCN(CCCn2nc(-c3ccc(C(F)(F)F)c(CNC(=O)c4ccc(F)cc4)c3)c3c2CCN(S(C)(=O)=O)C3)C1` (centres unmarked) [Example 5, N-(5-{1-[3-(3-Dimethylamino-pyrrolidin-1-yl)-propyl]-5-methanesulfonyl-4,5,6,7-tetrahydro-1H-pyrazolo[4,3-c]pyridin-3-yl}-2-trifluoromethyl-benzyl)-4-fluoro-benzamide]: the negative-log IC50 (pIC50) is 6.82. On the same count and under the same terms, as for `CS(=O)(=O)N1CCc2c(c(-c3ccc(C(F)(F)F)c(CNC(=O)c4ccccc4)c3)nn2CCCN2CCC3(CCNC3=O)CC2)C1` [Example 144, N-(5-{5-Methanesulfonyl-1-[3-(1-oxo-2,8-diaza-spiro[4.5]dec-8-yl)-propyl]-4,5,6,7-tetrahydro-1H-pyrazolo[4,3-c]pyridin-3-yl}-2-trifluoromethyl-benzyl)-benzamide], the figure is 6.96. On the same count and under the same terms, as for `CS(=O)(=O)N1CCc2c(c(-c3ccc(Cl)c(COCc4ccccc4)c3)nn2CCCN2CCCC2)C1` [Example 71, 3-(3-Benzyloxymethyl-4-chloro-phenyl)-5-methanesulfonyl-1-(3-pyrrolidin-1-yl-propyl)-4,5,6,7-tetrahydro-1H-pyrazolo[4,3-c]pyridine], the figure is 5.71. As for `CS(=O)(=O)N1CCc2c(c(-c3ccc(C(F)(F)F)c(CNC(=O)c4ccc(Cl)cc4)c3)nn2CC(O)CN2CCCC2)C1` (centres unmarked) [Example 224, 4-Chloro-N-{5-[1-(2-hydroxy-3-pyrrolidin-1-yl-propyl)-5-methanesulfonyl-4,5,6,7-tetrahydro-1H-pyrazolo[4,3-c]pyridin-3-yl]-2-trifluoromethyl-benzyl}-benzamide], the pIC50 was 6.14. On to `CS(=O)(=O)N1CCc2c(c(-c3ccc(C(F)(F)F)c(CNC(=O)c4ccc(F)cc4)c3)nn2CC(O)CN2CCCC(O)C2)C1` (centres unmarked) [Example 92, 4-Fluoro-N-(5-{1-[2-hydroxy-3-(3-hydroxy-piperidin-1-yl)-propyl]-5-methanesulfonyl-4,5,6,7-tetrahydro-1H-pyrazolo[4,3-c]pyridin-3-yl}-2-trifluoromethyl-benzyl)-benzamide], for which the pIC50 was 6.77. On the same count and under the same terms, as for `CS(=O)(=O)N1CCc2c(c(-c3ccc(Cl)c(CNC(=O)c4ccccc4)c3)nn2CC(O)CN2CCCC2)C1` (centres unmarked) [Example 69, N-{2-Chloro-5-[1-(2-hydroxy-3-pyrrolidin-1-yl-propyl)-5-methanesulfonyl-4,5,6,7-tetrahydro-1H-pyrazolo[4,3-c]pyridin-3-yl]-benzyl}-benzamide], the figure is 6.30; as for `CS(=O)(=O)N1CCc2c(c(-c3ccc(C(F)(F)F)c(CNC(=O)c4ccc([N+](=O)[O-])cc4)c3)nn2CC(O)CN2CCCC2)C1` (centres unmarked) [Example 212, N-{5-[1-(2-Hydroxy-3-pyrrolidin-1-yl-propyl)-5-methanesulfonyl-4,5,6,7-tetrahydro-1H-pyrazolo[4,3-c]pyridin-3-yl]-2-trifluoromethyl-benzyl}-4-nitro-benzamide], 6.28; as for `CS(=O)(=O)N1CCc2c(c(-c3ccc(C(F)(F)F)c(CNC(=O)c4ccccc4)c3)nn2CC(O)CN2CCC3(CCNC3=O)CC2)C1` (centres unmarked) [Example 145, N-(5-{1-[2-Hydroxy-3-(1-oxo-2,8-diaza-spiro[4.5]dec-8-yl)-propyl]-5-methanesulfonyl-4,5,6,7-tetrahydro-1H-pyrazolo[4,3-c]pyridin-3-yl}-2-trifluoromethyl-benzyl)-benzamide], 6.89. The same measure, in the same setting: as for `CS(=O)(=O)N1CCc2c(c(-c3ccc(C(F)(F)F)c(CNC(=O)c4ccc(Cl)c(Cl)c4)c3)nn2CC(O)CN2CCCC2)C1` (centres unmarked) [Example 229, 3,4-Dichloro-N-{5-[1-(2-hydroxy-3-pyrrolidin-1-yl-propyl)-5-methanesulfonyl-4,5,6,7-tetrahydro-1H-pyrazolo[4,3-c]pyridin-3-yl]-2-trifluoromethyl-benzyl}-benzamide], the figure is 6.11; as for `CS(=O)(=O)N1CCc2c(c(-c3ccc(Cl)c(CNC(=O)c4ccc(F)cc4)c3)nn2CCCN2CCCC2)C1` [Example 35, N-{2-Chloro-5-[5-methanesulfonyl-1-(3-pyrrolidin-1-yl-propyl)-4,5,6,7-tetrahydro-1H-pyrazolo[4,3-c]pyridin-3-yl]-benzyl}-4-fluoro-benzamide], 6.55. On the same count and under the same terms, as for `CC(=O)Nc1ccc(C(=O)NCc2cc(-c3nn(CC(O)CN4CCCC4)c4c3CN(S(C)(=O)=O)CC4)ccc2C(F)(F)F)cc1` (centres unmarked) [Example 240, 4-Acetylamino-N-{5-[1-(2-hydroxy-3-pyrrolidin-1-yl-propyl)-5-methanesulfonyl-4,5,6,7-tetrahydro-1H-pyrazolo[4,3-c]pyridin-3-yl]-2-trifluoromethyl-benzyl}-benzamide], the figure is 6.01; as for `Cc1cc(C(=O)NCc2cc(-c3nn(CC(O)CN4CCCC4)c4c3CN(S(C)(=O)=O)CC4)ccc2C(F)(F)F)ccc1F` (centres unmarked) [Example 96, 4-Fluoro-N-{5-[1-(2-hydroxy-3-pyrrolidin-1-yl-propyl)-5-methanesulfonyl-4,5,6,7-tetrahydro-1H-pyrazolo[4,3-c]pyridin-3-yl]-2-trifluoromethyl-benzyl}-3-methyl-benzamide], 6.62; as for `CC(=O)N1CCN(CC(O)Cn2nc(-c3ccc(C(F)(F)F)c(CNC(=O)c4ccc(F)cc4)c3)c3c2CCN(S(C)(=O)=O)C3)CC1` (centres unmarked) [Example 21, N-(5-{1-[3-(4-Acetyl-piperazin-1-yl)-2-hydroxy-propyl]-5-methanesulfonyl-4,5,6,7-tetrahydro-1H-pyrazolo[4,3-c]pyridin-3-yl}-2-trifluoromethyl-benzyl)-4-fluoro-benzamide], 6.52.
